For 3 compounds, refractive index and mass density results are on record in the NIST ThermoML archive (doi:10.1021/acs.jced.8b00693).

Series [1] can be described thus: refractive index (Na D-line) (dimensionless); wn = mass fraction of the nth substance listed. The settings on record: 298.15 K, 100 kPa, Liquid, Standard Abbe refractometry.
Series [2] can be described thus: wn = mass fraction of the nth substance listed. The conditions noted are these: 298.15 K, 100 kPa, Liquid, Pycnometric method.

± gives the expanded uncertainty stated by the source.

One may read the refractive index as a measure of how strongly the sample bends light. The mass density is the mass of a sample divided by its volume. On to `O=S(=O)([O-])[O-].[Cs+].[Cs+]` [cesium sulfate] + O, for which the refractive index in series [1] (w1 = 0.6463) stood at 1.4095 ± 0.002. The mass density in series [2] (w1 = 0.6463) amounted to 2009.2 ± 24 kg/m3.

As to `O=S(=O)([O-])[O-].[Rb+].[Rb+]` [rubidium sulfate] + O, in series [1] (w1 = 0.3365), the refractive index was 1.3649 ± 0.002. Moreover, the mass density in series [2] (w1 = 0.3365) amounted to 1363.1 ± 24 kg/m3.

For the compound `O=S(=O)([O-])[O-].[Na+].[Na+]` [sodium sulfate] + O, the refractive index in series [1] (w1 = 0.218) is on record as 1.3628 ± 0.002. In addition, in series [2] (w1 = 0.218), the mass density is 1183 ± 24 kg/m3.
